Blank lines part the entries; values can stand above or below the compound they belong to.
Assays:
Assay type in all cases: physicochemical
[1] = Absorption characteristics: transmission spectrum of near-infrared absorbing layer of NIR filter (UV-visible spectrophotometer)
Protocol: Further, the transmittance of the near-infrared absorbing layer can be measured by using an ultraviolet visible light spectrophotometer. For example, when the near-infrared absorbing layer is provided on a glass substrate, the transmittance is calculated by subtracting the transmittance of only the glass substrate. Note that the transmittance of light of the near-infrared absorbing layer refers to, unless otherwise stated, a ratio to light incident from a direction orthogonal to a main surface of a sample, the ratio of this light traveling straight inside the sample and transmitted to an opposite side. Further, when the transmittance is measured by making light incident from a direction other than the direction orthogonal to the main surface of the sample in the measurement of transmittance of light, an angle made by a straight line indicating the direction of the incident light to a line orthogonal to the main surface is called an incident angle.
In the condition (ii-3), the value calculated by nd(B)×(λa−λc) (hereinafter, this value may also be described as “Is value”) is a value to be an index indicating steepness of the absorption curve in the vicinity of the boundary between the visible light region and the near-infrared region with respect to a transmission spectrum of the near-infrared absorbing layer. When this value is 115 or less, the absorption curve in the vicinity of the boundary between the visible light region and the near-infrared region is steep with respect to the near-infrared absorbing layer, which can be said as preferable for the NIR filter.
That is, with respect to the transmission spectrum of the near-infrared absorbing layer, the smaller the difference (λa−λc) between the shortest wavelength λa with transmittance of 1% in the region of 650 nm to 800 nm and the wavelength λc with transmittance of 70% on a shorter wavelength side than the λa, the steeper the absorption curve in the vicinity of the boundary between the visible light region and the near-infrared region. Here, λa−λc also depends on a wavelength width having transmittance of 1% or less (λb−λa; λb is the longest wavelength with transmittance of 1% in the wavelength region of 650 nm to 800 nm). Accordingly, in order to compare and evaluate the steepness of the absorption curve in the above region of the transmission spectrum of the near-infrared absorbing layer, λb−λa is fixed to 30 nm. That is, λb−λa of the near-infrared absorbing layer which the present filter has is not limited to 30 nm.
Further, in the Is value, (λa−λc) is multiplied by the refractive index nd(B) of the transparent resin (B) contained in the near-infrared absorbing layer as a coefficient. This is to standardize the difference in steepness among resins.
Regarding transmittance (%/nm) of the NIR filters 1 to 109 obtained above, transmission spectra were measured and calculated by using an ultraviolet visible light spectrophotometer (U-4100 type spectrophotometer made by Hitachi High-Technologies Corporation). Analysis results of transmission spectra of the near-infrared absorbing layers which the NIR filters have are presented in Table 4, Table 5 and Table 6 for the NIR filters 1 to 25, 26 to 51, 52 to 75, respectively, and are presented in Table 7 and Table 8 for the NIR filters 76 to 94, 95 to 109, respectively. In Table 4 to Table 8, the ratios (parts by mass) of dyes to 100 parts by mass of the transparent resin (B) and film thicknesses of the near-infrared absorbing layers are described together.
Further, conditions of preferred transmission spectra of the near-infrared absorbing layers in the present filter and Is values obtained by the formula: nd(B)×(λa-λc) described in above (ii-3) are described in Table 4 to Table 8 together with λa in the condition (ii-1) and λb-λa in the condition (ii-2). Note that values described in Table 4 to Table 8 are values obtained by subtracting transmittance of a glass plate from transmittance of an NIR filter. […]

[2] = Transmittance and 20% shift (incident angle dependency) of NIR filter having selected wavelength shielding layer; settings: NIR filter 110: dye 3.0 parts by mass per 100 of polyester resin B-OKP2 (nd(B) 1.64), with selected wavelength shielding layer and antireflection layer
Protocol: In the present filter, the visible light transmittance is secured sufficiently by satisfying the condition (iv-1), and moreover, angle dependency which the dielectric multilayer film has is solved, and the light shielding property of the near-infrared region is secured sufficiently in a wide wavelength region without being affected by the influence of the incident angle by satisfying the conditions (iv-2) and (iv-3). • Here, in the condition (iv-3), the angle dependency is evaluated by using a shift of wavelength in 20% transmittance when the incident angle is 0 degree and when it is 30 degrees as an index.
Transmittance of the NIR filter of Example 110 was measured as transmittance of light incident from a direction orthogonal to a main surface, that is, light with an incident angle of 0 degree and transmittance of light incident from a direction making an angle of 30 degrees relative to a line orthogonal to the main surface, that is, light with an incident angle of 30 degrees by using an ultraviolet visible light spectrophotometer (U-4100 type spectrophotometer made by Hitachi High-Technologies Corporation), so as to obtain a transmission spectrum. A 20% shift (30 degrees) is a difference between a value of a wavelength with transmittance of 20% of light with an incident angle of 0 degree (indicated as “λ20-0”) and a value of a wavelength with transmittance of 20% of light with an incident angle of 30 degrees (indicated as “λ20-30”).
Moreover, a transmission spectrum of light with an incident angle of 40 degrees was obtained similarly. Further, the difference between a value of a wavelength with transmittance of 20% of light with an incident angle of 0 degree (λ20-0) and a value of a wavelength with transmittance of 20% of light with an incident angle of 40 degrees (indicated as “λ20-40”) was obtained as a 20% shift (40 degrees).
The near-infrared absorbing layer was formed on a glass plate similarly to Example 7 except that a glass plate on which the selected wavelength shielding layer is formed was used on a face opposite to an application face of the coating liquid for forming the near-infrared absorbing layer. Moreover, the antireflection layer was formed on the near-infrared absorbing layer, so as to obtain the NIR filter 110. The film thickness in the selected wavelength shielding layer in its entirety was approximately 8.9 μm, and the film thickness in the antireflection layer in its entirety was approximately 0.34 μm. The transmittance of the obtained NIR filter 110 was measured, and 20% shifts (30 degrees) and (40 degrees) were obtained. Results thereof are presented in Table 9 together with structures of the near-infrared absorbing layer. FIG. 6 illustrates transmission spectra of light with incident angles of 0 degree, 30 degrees and 40 degrees of the wavelength region of 660 nm to 690 nm in the NIR filter 110 by a solid line, a dotted line and a dashed line, respectively.

[3] = Solubility of dye to organic solvent; settings: 50° C., mass % of the dye to the mass of the entire solution; for Solubility to organic solvent: MIBK: methyl isobutyl ketone
Protocol: Regarding the dyes (A11-1) to (A11-10) and (A11-20) to (A11-27) obtained above, solubility to organic solvent was evaluated as follows.
Three kinds of solvents, cyclohexanone, methyl isobutyl ketone (MIBK), toluene, were used as the organic solvent in the solubility test. Note that in Table 3, % is mass % of the dye to the mass of the entire solution. Further, the temperature of each organic solvent in the solubility test was 50° C.

[4] = transparent resin acrylic resin BR50, nd(B) 1.56, film thickness 2.3 μm
[5] = transparent resin polycarbonate EP5000, nd(B) 1.63, film thickness 2.4 μm
[6] = transparent resin polycarbonate SP3810, nd(B) 1.63, film thickness 1.0 μm
[7] = transparent resin polycarbonate SP3810, nd(B) 1.63, film thickness 2.8 μm

- 430 nm to 600 nm Average transmittance [1, 4]: 96.1%
- Is value (nd(B)×(λa-λc)) [1, 4]: 101.5
- λa [1, 4]: 695 nm
- λa − λc [1, 4]: 65 nm
- λb [1, 4]: 715 nm
- λb − λa [1, 4]: 30 nm
- λc [1, 4]: 630 nm
- λmax [1, 4]: 712 nm
- 430 nm to 600 nm Average transmittance [1, 5]: 96.9%
- Is value (nd(B)×(λa-λc)) [1, 5]: 104.5
- λa [1, 5]: 700 nm
- λa − λc [1, 5]: 64 nm
- λb [1, 5]: 730 nm
- λb − λa [1, 5]: 30 nm
- λc [1, 5]: 636 nm
- λmax [1, 5]: 715 nm
- 430 nm to 600 nm Average transmittance [1, 6]: 95.8%
- Is value (nd(B)×(λa-λc)) [1, 6]: 106.3
- λa [1, 6]: 700 nm
- λa − λc [1, 6]: 65 nm
- λb [1, 6]: 730 nm
- λb − λa [1, 6]: 30 nm
- λc [1, 6]: 635 nm
- λmax [1, 6]: 712 nm
- 430 nm to 600 nm Average transmittance [1, 7]: 96.5%
- Is value (nd(B)×(λa-λc)) [1, 7]: 104.6
- λa [1, 7]: 700 nm
- λa − λc [1, 7]: 64 nm
- λb [1, 7]: 730 nm
- λb − λa [1, 7]: 30 nm
- λc [1, 7]: 636 nm
- λmax [1, 7]: 716 nm
- Solubility to organic solvent: Cyclohexanone [3]: 10%< mass %
- Solubility to organic solvent: MIBK [3]: 3.00% mass %
- Solubility to organic solvent: Toluene [3]: 10%< mass %
SMILES: CCCCC(CC)C(=O)Nc1cc2c(cc1C1=C([O-])C(=c3cc4c(cc3NC(=O)C(CC)CCCC)=[N+](C(C)C)C(C)C4(C)C)C1=O)C(C)(C)C(C)N2C(C)C (stereo not drawn) [Example A11-7]
- 20% shift 30 degrees (λ20-0-λ20-30) [2]: 1 nm
- 20% shift 40 degrees (λ20-0-λ20-40) [2]: 3 nm
- 20%-transmittance wavelength of 0-degree incident angle (λ20-0) [2]: 668 nm
- 20%-transmittance wavelength of 30-degree incident angle (λ20-30) [2]: 667 nm
- 20%-transmittance wavelength of 40-degree incident angle (λ20-40) [2]: 665 nm
- Transmittance 420 nm to 620 nm (average) [2]: 88.6%
- Transmittance 700 nm to 1100 nm (average) [2]: 0.03%
- Transmittance 710 nm to 1100 nm (maximum) [2]: 0.28%

- 430 nm to 600 nm Average transmittance [1, 4]: 93.7%
- Is value (nd(B)×(λa-λc)) [1, 4]: 132.7
- λa [1, 4]: 688 nm
- λa − λc [1, 4]: 85 nm
- λb [1, 4]: 718 nm
- λb − λa [1, 4]: 30 nm
- λc [1, 4]: 603 nm
- λmax [1, 4]: 705 nm
- 430 nm to 600 nm Average transmittance [1, 5]: 95.9%
- Is value (nd(B)×(λa-λc)) [1, 5]: 120.8
- λa [1, 5]: 694 nm
- λa − λc [1, 5]: 69 nm
- λb [1, 5]: 724 nm
- λb − λa [1, 5]: 30 nm
- λc [1, 5]: 620 nm
- λmax [1, 5]: 710 nm
- 430 nm to 600 nm Average transmittance [1, 6]: 95.2%
- Is value (nd(B)×(λa-λc)) [1, 6]: 122.6
- λa [1, 6]: 693 nm
- λa − λc [1, 6]: 75 nm
- λb [1, 6]: 723 nm
- λb − λa [1, 6]: 30 nm
- λc [1, 6]: 618 nm
- λmax [1, 6]: 710 nm
- 430 nm to 600 nm Average transmittance [1, 7]: 95.4%
- Is value (nd(B)×(λa-λc)) [1, 7]: 119.3
- λa [1, 7]: 694 nm
- λa − λc [1, 7]: 73 nm
- λb [1, 7]: 724 nm
- λb − λa [1, 7]: 30 nm
- λc [1, 7]: 621 nm
- λmax [1, 7]: 710 nm
- Solubility to organic solvent: Cyclohexanone [3]: 5.00% mass %
- Solubility to organic solvent: MIBK [3]: 1.00% mass %
- Solubility to organic solvent: Toluene [3]: 5.00% mass %
SMILES: CCCCCCCC(=O)Nc1cc2c(cc1C1=C([O-])C(=c3cc4c(cc3NC(=O)CCCCCCC)=[N+](C)C(C)C4(C)C)C1=O)C(C)(C)C(C)N2C (stereo not drawn) [Example A11-24, reference compound]
